Activity calls are given as the source filed them. Cut-off read from the data, not from the text of the source, for most assays here: actives have a measured EC50 and inactives only a lower limit.
Tests used:
[1] = target: T1, Heat shock factor protein 1 (Mus musculus, UniProt P38532); test: decrease of HSF1-responsive luciferase luminescence – cell-based, NIH3T3, dose retest, confirmation (AID 2382); assay type: functional;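 note: NIH3T3 fibroblasts with HSF1-driven luciferase reporter stressed by proteasome inhibitor MG132; luminescence from HSF1-driven luciferase expression after 8 hours of MG132 stress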
T1 sequence (P38532 whole entry): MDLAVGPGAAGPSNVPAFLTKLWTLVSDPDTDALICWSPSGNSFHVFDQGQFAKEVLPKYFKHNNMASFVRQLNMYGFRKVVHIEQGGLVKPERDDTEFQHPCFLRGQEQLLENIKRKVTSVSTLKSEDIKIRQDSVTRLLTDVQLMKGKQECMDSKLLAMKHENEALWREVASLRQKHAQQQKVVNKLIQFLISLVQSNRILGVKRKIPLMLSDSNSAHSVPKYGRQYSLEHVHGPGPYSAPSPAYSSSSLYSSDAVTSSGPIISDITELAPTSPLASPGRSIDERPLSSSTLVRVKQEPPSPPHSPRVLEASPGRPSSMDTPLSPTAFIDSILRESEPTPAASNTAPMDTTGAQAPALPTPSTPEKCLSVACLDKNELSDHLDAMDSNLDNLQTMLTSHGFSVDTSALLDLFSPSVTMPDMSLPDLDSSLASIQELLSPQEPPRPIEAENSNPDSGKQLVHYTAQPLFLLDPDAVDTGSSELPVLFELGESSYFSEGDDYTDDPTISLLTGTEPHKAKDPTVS

[2] = system: Streptococcus sp. 'group A'; test: Streptococcus pyogenes SK(-)GAS viability under kanamycin – luminescence, BacTiterGlo, confirmation, counter-screen for streptokinase expression inhibitor project, dose response (AID 1900); assay type: functional, organism-based
[3] = system: Streptococcus; test: GAS UMAA2166 growth inhibition – luminescence, BacTiterGlo, counter-screen for streptokinase expression inhibitor project, dose response (AID 1915); assay type: functional, organism-based;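 note: potency for reduction of bacterial viability or growth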
[4] = target: G-protein coupled receptor 35 (Homo sapiens, UniProt Q9HC97); test: inhibition of zaprinast-stimulated GPR35 beta-arrestin translocation – imaging, U2OS, beta-arrestin-GFP, zaprinast agonist, primary screen (AID 2058); assay type: functional;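 note: antagonist potency meaning inhibition of agonist-induced arrestin redistribution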
[5] = Luminescence Cell-Based Dose Retest to Confirm Inhibitors of Cancer Stem Cells. [Related pubchem assays (depositor defined):AID2717, AID2721]; assay type: functional; conditions: Homo sapiens
[6] = system: Vero; test: host cell viability loss, Vero E6 – synthesized analogs, cytotoxicity control for West Nile virus antiviral project, SAR follow-up (AID 2244); assay type: functional; conditions: Chlorocebus sabaeus
[7] = luciferase reporter signal suppression in cells – H4 neuroglioma cells, luminescence, dose response (AID 1990); assay type: functional, cell-based
[8] = system: BJ; test: BJ-TERT-LT-ST fibroblast viability loss – cell-based, RAS-independent, luminescence, dose response (AID 1935); assay type: functional; conditions: Homo sapiens;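 note: BJ fibroblasts immortalized with TERT plus LT and ST oncogenes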
[9] = DRD fibroblast viability loss – cell-based, non-viral oncogenic, luminescence, dose response (AID 1934); assay type: functional; conditions: Homo sapiens
[10] = alpha-synuclein stem-loop luciferase translation blockers – H4 neuroglioma cells, luminescence, confirmation (AID 1988); assay type: functional, cell-based
[11] = system: BJ; test: cells; assay type: functional, cell-based; conditions: Homo sapiens
[12] = system: BJ; test: BJ-TERT fibroblast viability loss – cell-based, RAS-independent, luminescence, dose response (AID 1933); assay type: functional; conditions: Homo sapiens
[13] = target: T2, Alkaline phosphatase, tissue-nonspecific isozyme (Homo sapiens, UniProt P05186)
T2 sequence (P05186 whole entry): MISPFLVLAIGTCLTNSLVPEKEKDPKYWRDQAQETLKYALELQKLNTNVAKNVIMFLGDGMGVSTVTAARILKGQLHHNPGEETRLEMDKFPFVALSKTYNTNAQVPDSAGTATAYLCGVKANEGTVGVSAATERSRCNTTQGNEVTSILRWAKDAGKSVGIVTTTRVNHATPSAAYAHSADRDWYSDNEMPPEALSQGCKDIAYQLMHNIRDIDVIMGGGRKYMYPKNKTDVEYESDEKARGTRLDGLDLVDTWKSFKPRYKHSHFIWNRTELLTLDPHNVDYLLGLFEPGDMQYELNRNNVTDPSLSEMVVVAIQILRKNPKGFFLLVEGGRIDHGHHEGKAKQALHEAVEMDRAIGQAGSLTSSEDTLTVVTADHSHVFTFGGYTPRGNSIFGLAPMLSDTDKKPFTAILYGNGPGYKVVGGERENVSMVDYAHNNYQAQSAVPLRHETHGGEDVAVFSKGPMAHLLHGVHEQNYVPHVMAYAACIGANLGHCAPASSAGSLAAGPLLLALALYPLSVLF

[14] = Luminescence Cell-Based Dose Response HTS to Identify Inhibitors of 5'UTR Stem-Loop Driven Prion Protein mRNA Translation in H4 Neuroglioblastoma Cells. [Related pubchem assays: 1827 (Project Summary), 1813 (Primary HTS)]; assay type: functional
[15] = reduction of Shn3 3'UTR-driven luciferase in osteoblasts – cell-based, Clone20 osteoblasts, firefly luciferase, cherry-picked, dose response (AID 624132); assay type: functional;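 note: firefly luciferase luminescence from reporter carrying the Shn3 3'UTR in osteoblasts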
[16] = toxicity toward HepG2 liver cells – cell-based, plate reader, cherry-pick, antagonist series, cytotoxicity control, dose response (AID 743416); assay type: functional
[17] = system: BJ; test: growth inhibition of engineered Ras-driven BJ cells – cell-based, alamar blue fluorescence, cherrypicked samples, dose response (AID 2631); assay type: functional; conditions: Homo sapiens;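 note: confirmatory dose-response assay in RAS-dependent BJ fibroblasts engineered with TERT, LT and ST, with cytotoxicity read by fluorescence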
[18] = blockade of melanocortin 4 receptor signaling – cell-based, plate reader, cherry pick, counter-screen for LGR2 antagonist project, dose response (AID 743444); assay type: functional;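 note: transfected HEK 293 cells stimulated with alpha-MSH peptide; potency of inhibitors of the alpha-MSH evoked signal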
[19] = blockers of bursicon-stimulated LGR2 cAMP reporter – cell-based, HEK293, CRE-luciferase reporter, cherry pick, set 2, dose response (AID 743343); assay type: functional;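 note: transfected cells were stimulated with diluted bursicon conditioned medium after compound addition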
[20] = cells; assay type: functional, cell-based
[21] = target: T3, Leucine aminopeptidase (Plasmodium falciparum 3D7, UniProt Q8IL11); test: P. falciparum M17LAP inhibitors, primary screen, biochemical, fluorogenic H-Leu-NHMec substrate, 1536-well (AID 1619); assay type: functional
T3 sequence (Q8IL11 whole entry): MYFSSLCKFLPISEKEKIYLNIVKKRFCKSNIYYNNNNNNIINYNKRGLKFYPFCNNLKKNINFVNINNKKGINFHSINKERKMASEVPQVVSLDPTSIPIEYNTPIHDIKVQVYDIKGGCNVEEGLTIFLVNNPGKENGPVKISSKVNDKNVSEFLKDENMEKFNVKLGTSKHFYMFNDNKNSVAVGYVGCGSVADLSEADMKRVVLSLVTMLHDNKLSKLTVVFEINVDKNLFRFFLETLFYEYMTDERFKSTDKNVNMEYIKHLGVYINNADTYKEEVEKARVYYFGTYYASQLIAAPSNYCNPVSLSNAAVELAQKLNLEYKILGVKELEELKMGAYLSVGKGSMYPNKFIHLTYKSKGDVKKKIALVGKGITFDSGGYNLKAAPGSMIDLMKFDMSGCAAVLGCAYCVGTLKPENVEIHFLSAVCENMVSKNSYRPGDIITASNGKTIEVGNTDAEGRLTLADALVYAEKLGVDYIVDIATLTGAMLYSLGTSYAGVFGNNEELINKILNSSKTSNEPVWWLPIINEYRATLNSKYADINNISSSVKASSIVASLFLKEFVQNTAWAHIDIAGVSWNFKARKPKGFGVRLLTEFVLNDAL

[22] = luciferase reporter signal reduction – luminescence, H4-C neuroglioblastoma cells, dose response (AID 2458); assay type: functional, cell-based;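 note: H4 neuroglioblastoma cells stably carrying a luciferase reporter gene fusion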
[23] = A549 cell cytotoxicity, dose response, cytotoxicity control, plate reader, cherry-pick, antagonist series (AID 743412); assay type: functional, cell-based
[24] = non-specific 3'UTR reporter inhibition in Clone20-Shn3RL – cell-based, Renilla luciferase, cherry-picked, counter-screen for Shn3 inhibitor project, dose response (AID 624133); assay type: functional
[25] = loss of viability in HepG2 cells – cell-based, CellTiter-Glo, cherry-picked, cytotoxicity control for Shn3 inhibitor project, dose response (AID 624134); assay type: functional
[26] = alpha-synuclein stem-loop translation blockers – luminescence, H4 neuroglioblastoma cells, dose confirmation, confirmation (AID 2454); assay type: functional, cell-based;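 note: H4 neuroglioblastoma cells carrying an alpha-synuclein 5'UTR luciferase reporter; potency for inhibition of the luciferase signal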
[27] = viability loss in HEK293 cells – cell-based, plate reader, cherry-picked samples, cytotoxicity control, dose response (AID 743446); assay type: functional

G-protein coupled receptor 35, sequence (Q9HC97 whole entry): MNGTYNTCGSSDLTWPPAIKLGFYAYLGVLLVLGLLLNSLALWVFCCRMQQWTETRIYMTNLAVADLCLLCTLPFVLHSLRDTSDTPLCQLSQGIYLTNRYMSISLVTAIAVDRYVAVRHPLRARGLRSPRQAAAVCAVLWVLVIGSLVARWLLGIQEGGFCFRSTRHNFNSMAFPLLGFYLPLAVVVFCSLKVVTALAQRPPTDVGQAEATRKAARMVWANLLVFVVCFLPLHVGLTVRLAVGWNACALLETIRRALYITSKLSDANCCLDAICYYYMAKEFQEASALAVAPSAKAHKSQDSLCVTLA

CC12CCC(C/C1=N\NC1=NC(=O)/C(=C\c3ccc(Cl)cc3)S1)C2(C)C (stereo unspecified)
EC50 [1]: 1.2 µM (active)
EC50 [2]: 1.18 µM (active)
EC50 [3]: 2.34 µM (active)
IC50 [4]: 13.9 µM (inactive)
AC50 [5]: 2.16 µM (active)

O=C(Nc1nc(-c2ccc(Cl)cc2)cs1)c1ccccc1Cl
CC50 [6]: > 40 µM (active)

COc1cccc2sc(Nc3nc4ccc(NC(C)=O)cc4s3)nc12
EC50 [7]: > 120 µM (not active)
EC50 [8]: > 150 µM (not active)
EC50 [9]: 30 µM (active)
EC50 [10]: 10.7 µM (active)
EC50 [11]: 28.2 µM (active)
EC50 [12]: 67.8 µM (active)
EC50 [13]: > 100 µM (not active)
EC50 [14]: 12.6 µM (active)

CCOc1ccc(OCc2cccc(C(=O)O)c2)cc1
AC50 [15]: 0.649 µM (active)
EC50 [7]: < 0.1 µM (active)
EC50 [1]: < 0.16 µM (active)
AC50 [16]: 31 µM (active)
EC50 [17]: > 133 µM (inactive)
EC50 [10]: < 0.1 µM (active)
AC50 [18]: 0.137 µM (active)
AC50 [19]: 0.118 µM (active)
EC50 [20]: 0.101 µM (active)
IC50 [21]: 24.8 µM (active)
EC50 [22]: 0.072 µM (active)
AC50 [23]: 21.7 µM (active)
AC50 [24]: 21.4 µM (active)
AC50 [25]: 16.9 µM (active)
EC50 [26]: 0.038 µM (active)
EC50 [14]: < 0.1 µM (active)
AC50 [27]: 18.9 µM (active)

Reference: ChEMBL document CHEMBL1201862, “PubChem BioAssay data set” (2004)
